Legend:
Assay type in all cases: functional, organism-based
Plasmodium falciparum [1] = experiment: Antimalarial activity against drug-sensitive Plasmodium falciparum NF54 by SYBR green-based assay
Plasmodium falciparum [2] = experiment: Antimalarial activity against multidrug-resistant Plasmodium falciparum K1 by SYBR green-based assay
Plasmodium falciparum [3] = experiment: Antimalarial activity against multidrug-resistant Plasmodium falciparum W2 by SYBR green-based assay

Row | SMILES | IC50 (Plasmodium falciparum [1]) [nM] | IC50 (Plasmodium falciparum [2]) [nM] | IC50 (Plasmodium falciparum [3]) [nM]
1 | COc1cc(Nc2ccnc3ccnn23)c2ncccc2c1 | 14 | 26 | –
2 | N#Cc1cnc2cc(C3CC3)nn2c1Nc1cccc2cccnc12 | 1600 | 2000 | –
3 | Cc1cc(Nc2ccnc3ccnn23)c2ncccc2c1 | 63 | 38 | –
4 | Cc1cc(Nc2cccc3cccnc23)n2ncnc2n1 | 880 | 760 | –
5 | c1cnc2c(Oc3ccnc4ccnn34)cccc2c1 | > 2000 | > 2000 | –
6 | Cc1cc(Nc2cccc3cccnc23)n2nccc2n1 | < 3.9 | 6.7 | –
7 | c1cc(Nc2ccnc3ccnn23)c2ccncc2c1 | 1200 | 1600 | –
8 | COc1cc(NC(C)CCCN)c2ncccc2c1 (stereo not given) [PRIMAQUINE] | – | – | 1470
9 | C[C@@H]1CC[C@H]2[C@@H](C)C(=O)O[C@@H]3O[C@@]4(C)CC[C@@H]1[C@]32OO4 [ARTEMISININ] | 7 | – | –
10 | Cc1nccc(Nc2cccc3cccnc23)n1 | > 500 | > 500 | –
11 | O=C1C(O)=C([C@H]2CC[C@H](c3ccc(Cl)cc3)CC2)C(=O)c2ccccc21 [ATOVAQUONE] | – | 2.3 | –
12 | c1cnc2c(Nc3ccnc4ccnn34)cccc2c1 | 5.3 | 7.8 | –
13 | Cc1nn2c(Nc3cccc4cccnc34)c(C#N)cnc2c1C | 26 | 27 | –
14 | FC(F)(F)c1cc(Nc2ccnc3ccnn23)c2ncccc2c1 | 42 | 18 | –
15 | Cc1ccc2cccnc2c1Nc1ccnc2ccnn12 | > 2000 | > 2000 | –
16 | COc1cc(C)c2c(Oc3cccc(C(F)(F)F)c3)c(OC)cc(NC(C)CCCN)c2n1 (stereo not given) [TAFENOQUINE] | – | – | 217
17 | Cc1nc2cccc(Nc3cccc4cccnc34)c2o1 | 1300 | 1600 | –
18 | c1cnc2c(Nc3ccnc4ncnn34)cccc2c1 | 1400 | 840 | –
19 | N#Cc1cnn2c(Nc3cccc4cccnc34)ccnc12 | 71 | 51 | –
20 | Cc1ccc2cccc(Nc3ccnc4ccnn34)c2n1 | 1700 | 1200 | –
21 | c1cc(Nc2ccnc3ccnn23)c2c(c1)OCCO2 | > 2000 | > 2000 | –
22 | Fc1cc(Nc2ccnc3ccnn23)c2ncccc2c1 | 3.9 | 3.9 | –

Reference: ChEMBL document CHEMBL3400088, “Synthesis and in vitro evaluation of novel 8-aminoquinoline-pyrazolopyrimidine hybrids as potent antimalarial agents” (Bioorg Med Chem Lett, 2015)
